Data from US10975037B2 (priority 2018, dated 2021).
Like-named read-outs stand apart in the source and are kept apart here. Marks after values point to notes of the source that are not given here.

Legend:
[1] = target: human RORγt ligand binding domain (RORγt LBD) (Homo sapiens (Human), UniProt P51449); experiment: RORγt ThermoFluor® assay (thermal shift binding)
Summary of the method: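 Thermal shift with 0.065 mg/mL RORγt LBD and 60 μM 1,8-ANS in 100 mM Hepes pH 7.0, 10 mM NaCl, 2.5 mM GSH, 0.002% Tween-20.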

full-length human RORγt = full-length human RORγt (Homo sapiens (Human), UniProt P51449); experiment: RORγt (full-length human) reporter assay, conditions A or B, HEK293T cells; assay type: cell-based; conditions: for inhibition at 6 µM: read-out: RORγt (FL) Reporter Assay A or B, % inhibition @ 6 μM, 6 μM compound concentration; for RORγt (FL) Reporter Assay A or B, % inhibition: 3 μM compound concentration (footnote *); for inhibition at 2 µM: 2 μM compound concentration; for inhibition at […]: 0.22 μM compound concentration (footnote *******)
Summary of the method: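 After 16–20 h, dual firefly/Renilla luciferase luminescence was read. Firefly signal was normalized to DMSO and saturating reference compound, then to Renilla, and fitted for IC50; % inhibition is versus DMSO.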

[2] = read-out: ThermoFluor® Assay, Kd
[3] = RORγt (FL) Reporter Assay A or B, IC50, HEK293T cells
[4] = HEK-293T, read-out: RORγt (FL) Reporter Assay A or B, % inhibition
[5] = HEK293T cells, read-out: RORγt (FL) Reporter Assay A or B, IC50

Sequence of human RORγt ligand binding domain (RORγt LBD) (P51449 other isoform, or with tags, fused parts or gaps): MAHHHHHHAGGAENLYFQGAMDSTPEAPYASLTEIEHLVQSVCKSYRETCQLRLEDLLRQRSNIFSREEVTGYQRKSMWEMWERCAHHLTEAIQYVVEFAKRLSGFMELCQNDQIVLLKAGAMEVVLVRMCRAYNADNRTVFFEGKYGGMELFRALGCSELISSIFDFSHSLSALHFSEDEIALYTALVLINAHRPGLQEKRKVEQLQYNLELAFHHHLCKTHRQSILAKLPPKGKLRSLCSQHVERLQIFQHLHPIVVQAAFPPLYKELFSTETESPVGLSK
Sequence of full-length human RORγt (P51449 other isoform, or with tags, fused parts or gaps): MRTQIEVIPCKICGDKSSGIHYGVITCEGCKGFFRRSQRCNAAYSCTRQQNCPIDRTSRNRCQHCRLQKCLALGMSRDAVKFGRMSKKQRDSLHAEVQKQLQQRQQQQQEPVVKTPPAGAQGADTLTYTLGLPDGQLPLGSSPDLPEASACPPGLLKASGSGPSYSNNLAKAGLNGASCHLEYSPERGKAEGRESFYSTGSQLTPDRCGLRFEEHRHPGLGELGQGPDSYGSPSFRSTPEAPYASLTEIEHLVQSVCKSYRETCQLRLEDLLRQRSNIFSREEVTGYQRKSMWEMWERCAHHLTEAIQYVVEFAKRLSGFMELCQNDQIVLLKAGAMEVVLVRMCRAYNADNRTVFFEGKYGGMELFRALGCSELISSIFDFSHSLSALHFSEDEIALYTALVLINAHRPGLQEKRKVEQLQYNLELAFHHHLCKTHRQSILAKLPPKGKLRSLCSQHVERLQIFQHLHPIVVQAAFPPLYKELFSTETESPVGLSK

Structure (SMILES) | Kd [1, 2] [nM] | IC50 (full-length human RORγt; [3]) [nM] | IC50 (full-length human RORγt; [5]) [nM] | other results
CCn1nc(C(=O)NC[C@]2(C#N)CC[C@H](S(C)(=O)=O)CC2)c(Cl)c1-c1ccc(N[C@H](C)C(F)(F)F)cc1OC [Example 33, 4-Chloro-N-(((1r,4R)-1-cyano-4-(methylsulfonyl)cyclohexyl)methyl)-1-ethyl-5-(2-methoxy-4-(((R)-1,1,1-trifluoropropan-2-yl)amino)phenyl)-1H-pyrazole-3-carboxamide] | 450 | 1100 |  | inhibition at 6 µM (full-length human RORγt; HEK-293T): 88%
CCn1nc(C(=O)NC[C@]2(C(N)=O)CC[C@H](S(C)(=O)=O)CC2)c(Cl)c1-c1ccc(N[C@H](C)C(F)(F)F)cc1OC [Example 34, N-(((1r,4R)-1-carbamoyl-4-(methylsulfonyl)cyclohexyl)methyl)-4-chloro-1-ethyl-5-(2-methoxy-4-(((R)-1,1,1-trifluoropropan-2-yl)amino)phenyl)-1H-pyrazole-3-carboxamide] | 3000 | > 6000 |  | inhibition at 6 µM (full-length human RORγt; HEK-293T): 6%
CCn1nc(C(=O)NC[C@]2(C(N)=O)CC[C@@H](S(C)(=O)=O)CC2)c(Cl)c1-c1ccc(N[C@H](C)C(F)(F)F)cc1OC [Example 35, N-(((1s,4S)-1-carbamoyl-4-(methylsulfonyl)cyclohexyl)methyl)-4-chloro-1-ethyl-5-(2-methoxy-4-(((R)-1,1,1-trifluoropropan-2-yl)amino)phenyl)-1H-pyrazole-3-carboxamide] | 34 | 730 |  | inhibition at 6 µM (full-length human RORγt; HEK-293T): 102%
CCn1nc(C(=O)NC[C@H]2CC[C@H](S(=O)(=O)NC)CC2)c(Cl)c1-c1ccc(CC(C)(C)C(F)(F)F)cc1OC(F)F [Example 50, 4-Chloro-5-(2-(difluoromethoxy)-4-(3,3,3-trifluoro-2,2-dimethylpropyl)phenyl)-1-ethyl-N-(((1r,4r)-4-(N-methylsulfamoyl)cyclohexyl)methyl)-1H-pyrazole-3-carboxamide] | 0.1 |  | 3 | 
CCn1nc(C(=O)NC[C@H]2CC[C@H](S(N)(=O)=O)CC2)c(Cl)c1-c1ccc(CC(C)(C)C(F)(F)F)cc1OC(F)F [Example 51, 4-Chloro-5-(2-(difluoromethoxy)-4-(3,3,3-trifluoro-2,2-dimethylpropyl)phenyl)-1-ethyl-N-(((1r,4r)-4-sulfamoylcyclohexyl)methyl)-1H-pyrazole-3-carboxamide] |  | 4.6 |  | Kd ([1]; ThermoFluor® Assay, Kd): 0.25 nM; inhibition at 1 µM (full-length human RORγt; HEK-293T, 1 μM compound concentration (footnote ***), read-out: RORγt (FL) Reporter Assay A or B, % inhibition): 113%
CCn1nc(C(=O)NC[C@H]2CC[C@H](S(=O)(=O)NC=O)CC2)c(Cl)c1-c1ccc(CC(C)(C)C(F)(F)F)cc1OC(F)F [Example 67, 4-Chloro-5-(2-(difluoromethoxy)-4-(3,3,3-trifluoro-2,2-dimethylpropyl)phenyl)-1-ethyl-N-(((1r,4r)-4-(N-formylsulfamoyl)cyclohexyl)methyl)-1H-pyrazole-3-carboxamide] | 0.039 |  | 56 | RORγt (FL) Reporter Assay A or B, % inhibition (full-length human RORγt): 118* %
CCn1nc(C(=O)NC[C@H]2CC[C@H](S(=O)(=O)NC(C)=O)CC2)c(Cl)c1-c1ccc(CC(C)(C)C(F)(F)F)cc1OC(F)F [Example 68, N-(((1r,4r)-4-(N-Acetylsulfamoyl)cyclohexyl)methyl)-4-chloro-5-(2-(difluoromethoxy)-4-(3,3,3-trifluoro-2,2-dimethylpropyl)phenyl)-1-ethyl-1H-pyrazole-3-carboxamide] | 0.7 |  | 39 | RORγt (FL) Reporter Assay A or B, % inhibition (full-length human RORγt): 97* %
CCn1nc(C(=O)NC[C@H]2CC[C@H](S(=O)(=O)NC(N)=O)CC2)c(Cl)c1-c1ccc(CC(C)(C)C(F)(F)F)cc1OC(F)F [Example 69, N-(((1r,4r)-4-(N-Carbamoylsulfamoyl)cyclohexyl)methyl)-4-chloro-5-(2-(difluoromethoxy)-4-(3,3,3-trifluoro-2,2-dimethylpropyl)phenyl)-1-ethyl-1H-pyrazole-3-carboxamide] | 0.29 |  | 51 | RORγt (FL) Reporter Assay A or B, % inhibition (full-length human RORγt): 100* %
CCC(=O)NS(=O)(=O)[C@H]1CC[C@H](CNC(=O)c2nn(CC)c(-c3ccc(CC(C)(C)C(F)(F)F)cc3OC(F)F)c2Cl)CC1 [Example 70, 4-Chloro-5-(2-(difluoromethoxy)-4-(3,3,3-trifluoro-2,2-dimethylpropyl)phenyl)-1-ethyl-N-(((r,4r)-4-(N-propionylsulfamoyl)cyclohexyl)methyl)-1H-pyrazole-3-carboxamide] | 0.72 |  | 23 | RORγt (FL) Reporter Assay A or B, % inhibition (full-length human RORγt): 103* %
CCn1nc(C(=O)NC[C@H]2CC[C@H](S(=O)(=O)NC(=O)NC)CC2)c(Cl)c1-c1ccc(CC(C)(C)C(F)(F)F)cc1OC(F)F [Example 71, 4-Chloro-5-(2-(difluoromethoxy)-4-(3,3,3-trifluoro-2,2-dimethylpropyl)phenyl)-1-ethyl-N-(((1r,4r)-4-(N-(methylcarbamoyl)sulfamoyl)cyclohexyl)methyl)-1H-pyrazole-3-carboxamide] | 0.23 |  | 13 | RORγt (FL) Reporter Assay A or B, % inhibition (full-length human RORγt): 114* %
CCn1nc(C(=O)NC[C@]2(O)CC[C@@H](S(C)(=O)=O)CC2)c(Cl)c1-c1ccc(CC(C)C)cc1OC [Example 73, 4-Chloro-1-ethyl-N-(((1s,4s)-1-hydroxy-4-(methylsulfonyl)cyclohexyl)methyl)-5-(4-isobutyl-2-methoxyphenyl)-1H-pyrazole-3-carboxamide] | 0.63 | 11 |  | inhibition at 2 µM (full-length human RORγt; [4]): 61%
CCn1nc(C(=O)NC[C@]2(O)CC[C@@H](S(C)(=O)=O)CC2)c(Cl)c1-c1ccc(CCC(C)C)cc1OC [Example 75, 4-Chloro-1-ethyl-N-(((1s,4s)-1-hydroxy-4-(methylsulfonyl)cyclohexyl)methyl)-5-(4-isopentyl-2-methoxyphenyl)-1H-pyrazole-3-carboxamide] | 0.88 | 25 |  | inhibition at 2 µM (full-length human RORγt; [4]): 62%
CCn1nc(C(=O)NC[C@]2(O)CC[C@@H](S(C)(=O)=O)CC2)c(Cl)c1-c1ccc(CCCC(F)(F)F)cc1OC(F)F [Example 77, 4-Chloro-5-(2-(difluoromethoxy)-4-(4,4,4-trifluorobutyl)phenyl)-1-ethyl-N-(((1s,4s)-1-hydroxy-4-(methylsulfonyl)cyclohexyl)methyl)-1H-pyrazole-3-carboxamide] | 1.2 | 5.6 |  | inhibition at 2 µM (full-length human RORγt; [4]): 96%

Further lines, with some results ahead:

Kd [1, 2] [nM] | IC50 (full-length human RORγt; [3]) [nM] | Structure (SMILES) | IC50 (full-length human RORγt; [5]) [nM] | other results
3.3 | 12 | CCn1nc(C(=O)NC[C@H]2CC[C@H](S(C)(=O)=O)CC2)c(Cl)c1-c1ccc(CCC(F)(F)F)cc1OC [Example 38, 4-Chloro-1-ethyl-5-(2-methoxy-4-(3,3,3-trifluoropropyl)phenyl)-N-(((1r,4r)-4-(methylsulfonyl)cyclohexyl)methyl)-1H-pyrazole-3-carboxamide] |  | inhibition at 0.67 µM (full-length human RORγt; [4]): 84%
10 | 38 | CCn1nc(C(=O)NC[C@]2(O)CC[C@@H](S(C)(=O)=O)CC2)c(Cl)c1-c1ccc(CCC(F)(F)F)cc1OC [Example 39, 4-Chloro-1-ethyl-N-(((1s,4s)-1-hydroxy-4-(methylsulfonyl)cyclohexyl)methyl)-5-(2-methoxy-4-(3,3,3-trifluoropropyl)phenyl)-1H-pyrazole-3-carboxamide] |  | inhibition at 6 µM (full-length human RORγt; HEK-293T): 85%
0.29 | 10 | CCn1nc(C(=O)NC[C@H]2CC[C@H](S(C)(=O)=O)CC2)c(Cl)c1-c1ccc(CC(C)C)cc1OC [Example 72, 4-Chloro-1-ethyl-5-(4-isobutyl-2-methoxyphenyl)-N-(((1r,4r)-4-(methylsulfonyl)cyclohexyl)methyl)-1H-pyrazole-3-carboxamide] |  | inhibition at 2 µM (full-length human RORγt; [4]): 67%
0.33 | 38 | CCn1nc(C(=O)NC[C@H]2CC[C@H](S(C)(=O)=O)CC2)c(Cl)c1-c1ccc(CCC(C)C)cc1OC [Example 74, 4-Chloro-1-ethyl-5-(4-isopentyl-2-methoxyphenyl)-N-(((1r,4r)-4-(methylsulfonyl)cyclohexyl)methyl)-1H-pyrazole-3-carboxamide] |  | inhibition at 0.67 µM (full-length human RORγt; HEK-293T, 0.67 μM compound concentration (footnote ****), read-out: RORγt (FL) Reporter Assay A or B, % inhibition): 50%
0.28 | 2.1 | CCn1nc(C(=O)NC[C@H]2CC[C@H](S(C)(=O)=O)CC2)c(Cl)c1-c1ccc(CCCC(F)(F)F)cc1OC(F)F [Example 76, 4-Chloro-5-(2-(difluoromethoxy)-4-(4,4,4-trifluorobutyl)phenyl)-1-ethyl-N-(((1r,4r)-4-(methylsulfonyl)cyclohexyl)methyl)-1H-pyrazole-3-carboxamide] |  | inhibition at […] (full-length human RORγt; [4]): 103%
0.59 | 12 | CCn1nc(C(=O)NC[C@H]2CC[C@H](S(C)(=O)=O)CC2)c(C)c1-c1ccc(CCCC(F)(F)F)cc1OC(F)F [Example 78, 5-(2-(Difluoromethoxy)-4-(4,4,4-trifluorobutyl)phenyl)-1-ethyl-4-methyl-N-(((1r,4r)-4-(methylsulfonyl)cyclohexyl)methyl)-1H-pyrazole-3-carboxamide] |  | inhibition at […] (full-length human RORγt; [4]): 93%
2.3 | 6 | CCn1nc(C(=O)NC[C@H]2CC[C@H](S(C)(=O)=O)CC2)c(Cl)c1-c1ccc(CCCC(F)(F)F)cc1OC [Example 80, 4-Chloro-1-ethyl-5-(2-methoxy-4-(4,4,4-trifluorobutyl)phenyl)-N-(((1r,4r)-4-(methylsulfonyl)cyclohexyl)methyl)-1H-pyrazole-3-carboxamide] |  | inhibition at 2 µM (full-length human RORγt; [4]): 89%
